Test results published in patent publication US9492471B2, “Methods of treating a disease or disorder associated with Bruton'S Tyrosine Kinase” (Celgene Avilomics Research, Inc., priority 2013, dated 2016).
Where two headings read alike, the source gives them in different places.

Key:
Assay in all cases: HotSpot kinase profiling
Type in all cases: biochemical
[1] = target: T1, DYRK2 (Homo sapiens, UniProt Q92630)
T1 construct: purchased Reaction Biology Corp
T1 sequence (Q92630 1-601): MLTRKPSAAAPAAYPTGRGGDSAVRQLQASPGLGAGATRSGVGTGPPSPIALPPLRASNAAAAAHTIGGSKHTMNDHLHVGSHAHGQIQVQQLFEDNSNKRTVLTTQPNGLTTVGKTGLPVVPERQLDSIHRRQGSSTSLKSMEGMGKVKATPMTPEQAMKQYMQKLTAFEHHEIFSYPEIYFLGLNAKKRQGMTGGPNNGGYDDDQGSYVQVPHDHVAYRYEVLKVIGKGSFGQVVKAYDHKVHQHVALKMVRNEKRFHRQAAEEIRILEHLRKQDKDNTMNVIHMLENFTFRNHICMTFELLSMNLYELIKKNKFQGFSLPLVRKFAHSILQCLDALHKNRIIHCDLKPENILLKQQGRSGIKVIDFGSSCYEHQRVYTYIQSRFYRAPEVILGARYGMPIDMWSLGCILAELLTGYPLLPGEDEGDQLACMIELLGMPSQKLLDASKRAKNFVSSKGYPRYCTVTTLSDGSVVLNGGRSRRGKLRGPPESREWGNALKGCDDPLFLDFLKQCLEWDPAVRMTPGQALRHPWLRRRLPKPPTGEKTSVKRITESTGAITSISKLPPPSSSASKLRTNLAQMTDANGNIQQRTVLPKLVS
Method in brief: (§1)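 Radio-isotope P81 filtration format. Substrate + required cofactors in reaction buffer, kinase added, 2 h RT. Stop, wash with 0.1% phosphoric acid, detect. % inhibition vs DMSO; mean of duplicates where repeated.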

[2] = target: T2, LATS2 (Homo sapiens, UniProt Q9NRM7)
T2 construct: purchased Reaction Biology Corp
T2 sequence (Q9NRM7 1-1088): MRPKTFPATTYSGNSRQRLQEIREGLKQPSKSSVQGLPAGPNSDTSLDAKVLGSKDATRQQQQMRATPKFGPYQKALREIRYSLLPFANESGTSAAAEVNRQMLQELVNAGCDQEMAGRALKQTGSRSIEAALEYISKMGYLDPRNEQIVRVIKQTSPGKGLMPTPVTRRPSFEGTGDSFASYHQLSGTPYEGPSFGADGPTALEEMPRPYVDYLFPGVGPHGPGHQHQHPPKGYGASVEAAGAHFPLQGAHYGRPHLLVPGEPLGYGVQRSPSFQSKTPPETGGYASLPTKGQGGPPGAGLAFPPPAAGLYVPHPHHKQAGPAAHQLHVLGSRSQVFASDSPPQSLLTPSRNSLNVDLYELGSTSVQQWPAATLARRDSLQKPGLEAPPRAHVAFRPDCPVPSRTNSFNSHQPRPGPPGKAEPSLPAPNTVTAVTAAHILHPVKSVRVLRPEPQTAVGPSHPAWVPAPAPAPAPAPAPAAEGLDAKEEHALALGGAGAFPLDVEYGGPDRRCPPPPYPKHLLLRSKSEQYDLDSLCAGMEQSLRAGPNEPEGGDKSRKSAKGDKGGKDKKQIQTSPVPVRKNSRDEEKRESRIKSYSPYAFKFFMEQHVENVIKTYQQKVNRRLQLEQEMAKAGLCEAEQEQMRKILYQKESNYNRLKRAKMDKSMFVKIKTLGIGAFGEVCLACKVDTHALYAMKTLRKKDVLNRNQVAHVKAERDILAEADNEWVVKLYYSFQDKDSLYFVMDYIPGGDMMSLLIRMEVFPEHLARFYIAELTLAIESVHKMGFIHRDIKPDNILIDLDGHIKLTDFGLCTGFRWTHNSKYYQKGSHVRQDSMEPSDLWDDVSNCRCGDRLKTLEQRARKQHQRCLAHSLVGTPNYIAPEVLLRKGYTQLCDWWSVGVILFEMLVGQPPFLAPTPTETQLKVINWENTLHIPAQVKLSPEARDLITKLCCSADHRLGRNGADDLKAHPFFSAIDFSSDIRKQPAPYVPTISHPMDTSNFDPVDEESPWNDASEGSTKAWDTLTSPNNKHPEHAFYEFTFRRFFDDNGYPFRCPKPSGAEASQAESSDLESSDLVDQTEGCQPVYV
Method in brief: as §1

[3] = target: T3, MLK1/MAP3K9 (Homo sapiens, UniProt P80192)
T3 construct: purchased Reaction Biology Corp
T3 sequence (P80192 whole entry): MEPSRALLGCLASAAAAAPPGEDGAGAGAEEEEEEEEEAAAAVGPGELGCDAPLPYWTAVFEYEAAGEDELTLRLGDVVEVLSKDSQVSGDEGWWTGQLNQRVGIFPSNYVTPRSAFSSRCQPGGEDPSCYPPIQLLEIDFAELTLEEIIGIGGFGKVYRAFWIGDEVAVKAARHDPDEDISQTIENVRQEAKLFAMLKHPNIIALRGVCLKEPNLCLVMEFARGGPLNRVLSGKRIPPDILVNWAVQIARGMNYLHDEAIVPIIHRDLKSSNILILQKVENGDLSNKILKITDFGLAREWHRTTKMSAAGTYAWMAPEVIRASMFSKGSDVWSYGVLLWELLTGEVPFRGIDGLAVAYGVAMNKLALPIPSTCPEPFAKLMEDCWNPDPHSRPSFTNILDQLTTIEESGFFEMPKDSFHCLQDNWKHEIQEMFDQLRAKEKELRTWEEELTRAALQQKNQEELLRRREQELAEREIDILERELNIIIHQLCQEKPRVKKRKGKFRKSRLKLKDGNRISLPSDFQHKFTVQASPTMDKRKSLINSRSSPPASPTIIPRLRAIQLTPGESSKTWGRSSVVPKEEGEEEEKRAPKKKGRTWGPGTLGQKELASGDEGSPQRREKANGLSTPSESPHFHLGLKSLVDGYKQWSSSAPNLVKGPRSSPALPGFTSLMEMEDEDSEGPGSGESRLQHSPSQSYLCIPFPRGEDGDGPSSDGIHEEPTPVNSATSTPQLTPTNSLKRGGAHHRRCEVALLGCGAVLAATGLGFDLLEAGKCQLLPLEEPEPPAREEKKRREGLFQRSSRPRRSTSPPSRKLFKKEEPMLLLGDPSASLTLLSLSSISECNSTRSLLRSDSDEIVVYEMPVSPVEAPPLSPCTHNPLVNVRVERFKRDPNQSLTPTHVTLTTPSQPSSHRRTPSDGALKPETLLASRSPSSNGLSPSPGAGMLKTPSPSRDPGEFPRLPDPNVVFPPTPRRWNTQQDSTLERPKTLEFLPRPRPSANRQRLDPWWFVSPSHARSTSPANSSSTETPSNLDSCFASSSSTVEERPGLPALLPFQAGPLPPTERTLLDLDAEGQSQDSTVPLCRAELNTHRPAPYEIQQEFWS
Method in brief: as §1

[4] = target: T4, PDGFRa (Homo sapiens, UniProt P16234)
T4 construct: purchased Reaction Biology Corp
T4 sequence (P16234 24-1089): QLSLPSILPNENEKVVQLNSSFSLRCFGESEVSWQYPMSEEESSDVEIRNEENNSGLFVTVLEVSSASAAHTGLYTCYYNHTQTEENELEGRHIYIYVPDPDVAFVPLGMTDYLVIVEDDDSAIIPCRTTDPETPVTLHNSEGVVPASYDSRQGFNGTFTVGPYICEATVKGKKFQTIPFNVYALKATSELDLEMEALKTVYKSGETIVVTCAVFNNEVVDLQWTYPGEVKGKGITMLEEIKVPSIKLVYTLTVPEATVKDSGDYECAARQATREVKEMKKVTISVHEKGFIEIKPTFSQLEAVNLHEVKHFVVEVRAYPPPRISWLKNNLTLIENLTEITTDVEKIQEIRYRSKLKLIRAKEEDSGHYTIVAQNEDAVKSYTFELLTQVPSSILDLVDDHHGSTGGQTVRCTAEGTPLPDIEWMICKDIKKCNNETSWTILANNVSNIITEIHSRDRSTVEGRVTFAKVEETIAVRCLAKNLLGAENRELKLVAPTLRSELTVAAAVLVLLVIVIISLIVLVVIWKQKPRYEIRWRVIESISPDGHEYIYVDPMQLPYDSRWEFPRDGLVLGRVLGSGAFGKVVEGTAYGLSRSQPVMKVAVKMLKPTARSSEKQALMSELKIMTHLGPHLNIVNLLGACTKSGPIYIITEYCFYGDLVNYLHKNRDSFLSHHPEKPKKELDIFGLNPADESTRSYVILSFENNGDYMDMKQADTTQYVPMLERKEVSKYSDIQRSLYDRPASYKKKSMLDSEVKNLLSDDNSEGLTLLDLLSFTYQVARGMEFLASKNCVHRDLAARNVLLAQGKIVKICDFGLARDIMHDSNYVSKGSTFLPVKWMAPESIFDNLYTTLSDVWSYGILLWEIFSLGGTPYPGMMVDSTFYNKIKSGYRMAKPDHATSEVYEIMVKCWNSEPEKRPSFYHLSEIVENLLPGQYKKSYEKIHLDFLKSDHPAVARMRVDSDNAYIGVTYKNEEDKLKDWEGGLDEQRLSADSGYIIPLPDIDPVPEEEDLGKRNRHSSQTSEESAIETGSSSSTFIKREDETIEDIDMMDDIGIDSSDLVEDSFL
Method in brief: as §1

[5] = target: T5, STK38/NDR1 (Homo sapiens, UniProt Q15208)
T5 construct: purchased Reaction Biology Corp
T5 sequence (Q15208 whole entry): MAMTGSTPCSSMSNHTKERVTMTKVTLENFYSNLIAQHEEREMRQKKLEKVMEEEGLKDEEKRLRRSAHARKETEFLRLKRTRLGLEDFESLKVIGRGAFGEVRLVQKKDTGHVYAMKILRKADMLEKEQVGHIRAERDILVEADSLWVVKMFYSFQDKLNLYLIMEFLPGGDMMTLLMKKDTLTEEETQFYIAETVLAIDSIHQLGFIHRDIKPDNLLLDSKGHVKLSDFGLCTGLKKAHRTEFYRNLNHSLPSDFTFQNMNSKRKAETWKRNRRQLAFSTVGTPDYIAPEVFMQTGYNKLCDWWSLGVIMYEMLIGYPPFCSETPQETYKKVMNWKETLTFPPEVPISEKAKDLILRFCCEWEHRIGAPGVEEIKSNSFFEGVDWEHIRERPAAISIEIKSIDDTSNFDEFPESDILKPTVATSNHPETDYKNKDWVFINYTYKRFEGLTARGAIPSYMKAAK
Method in brief: as §1

[6] = read-out: % Enzyme Activity (relative to DMSO controls) Run 1
[7] = read-out: % Enzyme Activity (relative to DMSO controls) Run 2

C=CC(=O)Nc1cccc(Nc2nc(Nc3ccc(OCCOC)c(F)c3)ncc2F)c1 [Compound 2]
inhibition at 3 µM [1]: 38.5%
remaining activity at 3 µM [1, 6]: 61%
remaining activity at 3 µM [1, 7]: 62.1%
inhibition at 3 µM [2]: 10.2%
remaining activity at 3 µM [2, 6]: 88.4%
remaining activity at 3 µM [2, 7]: 91.2%
inhibition at 3 µM [3]: 85.7%
remaining activity at 3 µM [3, 6]: 14.5%
remaining activity at 3 µM [3, 7]: 14.1%
inhibition at 3 µM [4]: 36.6%
remaining activity at 3 µM [4, 6]: 63.9%
remaining activity at 3 µM [4, 7]: 62.8%
inhibition at 3 µM [5]: 6.79%
remaining activity at 3 µM [5, 6]: 92.7%
remaining activity at 3 µM [5, 7]: 93.7%
